compound: CC1(C)CCC(CN2CCN(c3ccc(C(=O)NS(=O)(=O)c4ccc(NCC5CCOCC5)c([N+](=O)[O-])c4)c(Oc4cnc5[nH]ccc5c4)c3)CC2)=C(c2ccc(Cl)cc2)C1 [Venetoclax] + CC(=O)c1c(C)c2cnc(Nc3ccc(N4CCNCC4)cn3)nc2n(C2CCCC2)c1=O [Palbociclib] (partner 0.5 µM); test: relative viability (nuclei count vs DMSO), 5 days (fraction); higher = more cells survive; details: first compound 1 µM
Method in brief: (§1)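 Relative viability equals treated-well nuclei counts divided by vehicle-well nuclei counts. Counts came from 4× images of lung cancer cell lines grown in 1536-well plates for 5 days after pin-tool dosing on the day after seeding. Dosing used one drug alone or a fixed anchor-drug dose plus five library-drug doses (not always all listed) in √10 steps, and values are medians of duplicate plates.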

Cell Line	relative viability
NCI-H838	0.2
NCI-H1792	0.583
NCI-H3122	0.204
NCI-H1395	0.58
201T	0.334
NCI-H1993	0.541
HOP-62	0.4
NCI-H1355	0.356
NCI-H2405	0.513
NCI-H1437	0.251
NCI-H661	0.392
CAL-12T	0.314
H3255	0.296
NCI-H2347	0.414
NCI-H1975	0.534
NCI-H441	0.18
NCI-H1650	0.306
NCI-H1915	0.495
NCI-H2087	0.188
HCC-366	0.326
NCI-H1793	0.27
RERF-LC-KJ	1.03
EKVX	0.363
LCLC-103H	0.428
NCI-H1651	0.528

compound: Cn1cnc2c(F)c(Nc3ccc(Br)cc3Cl)c(C(=O)NOCCO)cc21 [Selumetinib] + N=C(N)NC(=N)NCCc1ccccc1 [Phenformin] (partner 250 µM); test: as above; details: first compound 0.02 µM
Method in brief: as §1

Cell Line	relative viability
BEN	0.281
HCC-15	0.37
HCC-827	0.4
NCI-H460	0.479
LU99A	0.905
NCI-H2085	0.637
A-427	0.264
NCI-H520	0.616
NCI-H838	0.502
NCI-H1792	0.192
NCI-H3122	0.386
NCI-H1395	0.447
201T	0.507
NCI-H1993	0.506
HOP-62	0.753
NCI-H1355	0.435
NCI-H2405	0.344

Cell Line	relative viability
NCI-H1437	0.269
NCI-H661	0.261
CAL-12T	0.469
H3255	0.385
NCI-H2347	0.401
NCI-H1975	0.426
NCI-H441	0.886
NCI-H1650	0.424
NCI-H1915	0.423
NCI-H2087	0.367
HCC-366	0.594
NCI-H1793	0.364
RERF-LC-KJ	0.368
EKVX	0.22
LCLC-103H	0.329
NCI-H1651	0.329

same assay, conditions: first compound 0.06325 µM

Cell Line	relative viability
BEN	0.315
HCC-15	0.284
HCC-827	0.4
NCI-H460	0.397
LU99A	0.799
NCI-H2085	0.623
A-427	0.271
NCI-H520	0.659
NCI-H838	0.481
NCI-H3122	0.305
NCI-H1395	0.42
201T	0.406
NCI-H1993	0.569
HOP-62	0.657
NCI-H1355	0.43
NCI-H2405	0.319

Cell Line	relative viability
NCI-H1437	0.232
NCI-H661	0.291
CAL-12T	0.392
H3255	0.367
NCI-H2347	0.256
NCI-H1975	0.378
NCI-H441	0.674
NCI-H1650	0.371
NCI-H1915	0.371
NCI-H2087	0.279
HCC-366	0.607
NCI-H1793	0.349
RERF-LC-KJ	0.388
EKVX	0.217
LCLC-103H	0.326
NCI-H1651	0.264

same assay, conditions: first compound 0.2 µM

Cell Line	relative viability
BEN	0.252
HCC-15	0.231
HCC-827	0.42
NCI-H460	0.309
LU99A	0.85
NCI-H2085	0.602
A-427	0.266
NCI-H520	0.671
NCI-H838	0.505
NCI-H1792	0.144
NCI-H3122	0.287
NCI-H1395	0.456
201T	0.455
NCI-H1993	0.466
HOP-62	0.624
NCI-H1355	0.391
NCI-H2405	0.296

Cell Line	relative viability
NCI-H1437	0.216
NCI-H661	0.272
CAL-12T	0.393
H3255	0.332
NCI-H2347	0.187
NCI-H1975	0.379
NCI-H441	0.667
NCI-H1650	0.444
NCI-H1915	0.271
NCI-H2087	0.294
HCC-366	0.512
NCI-H1793	0.316
RERF-LC-KJ	0.422
EKVX	0.214
LCLC-103H	0.293
NCI-H1651	0.281

same assay, conditions: first compound 0.6325 µM

Cell Line	relative viability
BEN	0.257
HCC-15	0.185
HCC-827	0.409
NCI-H460	0.176
LU99A	0.835
NCI-H2085	0.481
A-427	0.23
NCI-H520	0.784
NCI-H838	0.474
NCI-H1792	0.229
NCI-H3122	0.286
NCI-H1395	0.475
201T	0.421
NCI-H1993	0.551
HOP-62	0.465
NCI-H1355	0.373
NCI-H2405	0.164

Cell Line	relative viability
NCI-H1437	0.243
NCI-H661	0.246
CAL-12T	0.353
H3255	0.318
NCI-H2347	0.283
NCI-H1975	0.34
NCI-H441	0.468
NCI-H1650	0.35
NCI-H1915	0.284
NCI-H2087	0.214
HCC-366	0.361
NCI-H1793	0.273
RERF-LC-KJ	0.395
EKVX	0.22
LCLC-103H	0.337
NCI-H1651	0.298

— the supplement of paper PMC10307832
